Assay results published in patent US6967079B2, “Pyrimidine derivatives for labeled binding partners” (ISIS Pharmaceuticals, Inc., priority 1993, dated 2005).

Assay: Fluorescence excitation and emission wavelengths
Format: physicochemical
Design: unit not given here
Details: deoxyriboside compound

2′-Deoxphenothiazine [phenothiazine deoxyriboside]
emission wavelength (EM): 492
